Where “and” joins values, the source holds several entries; their conditions need not be identical. Equal entries are not always repeated. Toxic doses and inconclusive results are not listed. No stated cut-off is given here; in the data, active means T/C of 150% or more; inactive means T/C below 125%.
Test system: L1210 leukemia ip in BDF1 mice, survival T/C
Experiment: NCI In Vivo Anticancer Drug Screen. Data for tumor model L1210 Leukemia (intraperitoneal) in B6D2F1 (BDF1) mice
Conditions: endpoint: mean survival time, higher = longer survival
In short: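 Value reflects the ratio of survival in compound-treated mice to survival in vehicle-treated controls, with both groups carrying the same transplanted tumor.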

[1] = dose: 100.0 mg/kg/injection, schedule: Q01DX009 (ip), vehicle: Klucel (hydroxypropylcellulose) (HPC)
[2] = dose: 200.0 mg/kg/injection, schedule: Q01DX009 (ip), vehicle: Klucel (hydroxypropylcellulose) (HPC)
[3] = dose: 100.0 mg/kg/injection, schedule: Q04DX003 (ip), vehicle: Klucel (hydroxypropylcellulose) (HPC)
[4] = dose: 200.0 mg/kg/injection, schedule: Q04DX003 (ip), vehicle: Klucel (hydroxypropylcellulose) (HPC)
[5] = dose: 400.0 mg/kg/injection, schedule: Q04DX003 (ip), vehicle: Klucel (hydroxypropylcellulose) (HPC)

Measured: T/C

CCCCCCCCCCCCCCCCCCN1CCSCC1
inactive: dose: 100.0 mg/kg/injection, schedule: Q01DX009 (ip), vehicle: saline with Tween-80 96 % of control and 108 % of control | dose: 100.0 mg/kg/injection, schedule: Q04DX002 (ip), vehicle: saline with Tween-80 93 % of control and 103 % of control | dose: 100.0 mg/kg/injection, schedule: Q04DX003 (ip), vehicle: saline with Tween-80 104 % of control | dose: 200.0 mg/kg/injection, schedule: Q01DX009 (ip), vehicle: saline with Tween-80 100 % of control and 103 % of control | dose: 200.0 mg/kg/injection, schedule: Q04DX002 (ip), vehicle: saline with Tween-80 94 % of control and 91 % of control | dose: 200.0 mg/kg/injection, schedule: Q04DX003 (ip), vehicle: saline with Tween-80 104 % of control | dose: 400.0 mg/kg/injection, schedule: Q01DX009 (ip), vehicle: saline with Tween-80 103 % of control and 110 % of control | dose: 400.0 mg/kg/injection, schedule: Q04DX002 (ip), vehicle: saline with Tween-80 98 % of control | dose: 400.0 mg/kg/injection, schedule: Q04DX003 (ip), vehicle: saline with Tween-80 106 % of control

O=c1cc(C[n+]2ccccc2)[nH]c(=O)[nH]1
inactive: dose: 100.0 mg/kg/injection, schedule: Q04DX003 (ip), vehicle: saline 89 % of control | dose: 200.0 mg/kg/injection, schedule: Q04DX003 (ip), vehicle: saline 89 % of control

CNc1ccc(Cl)cc1-c1nc2ccccc2[nH]1
inactive: dose: 50.0 mg/kg/injection, schedule: Q01DX009 (ip), vehicle: Klucel (hydroxypropylcellulose) (HPC) 109 % of control | [1] 102 % of control | [2] 102 % of control

O=P(O)(O)OCC(O)CF (stereo not given)
inactive: dose: 2.5 mg/kg/injection, schedule: Q01DX009 (ip), vehicle: saline 89 % of control | dose: 5.0 mg/kg/injection, schedule: Q01DX009 (ip), vehicle: saline 93 % of control | dose: 10.0 mg/kg/injection, schedule: Q01DX009 (ip), vehicle: saline 94 % of control | dose: 44.0 mg/kg/injection, schedule: Q04DX003 (ip), vehicle: saline 109 % of control | dose: 88.0 mg/kg/injection, schedule: Q04DX003 (ip), vehicle: saline 100 % of control | dose: 115.5 mg/kg/injection, schedule: Q04DX003 (ip), vehicle: saline 96 % of control | dose: 175.0 mg/kg/injection, schedule: Q04DX003 (ip), vehicle: saline 92 % of control

CC(=O)O/N=C\C(C)=N\OC(C)=O
inactive: dose: 15.0 mg/kg/injection, schedule: Q01DX Z (ip), vehicle: saline 109 % of control | dose: 30.0 mg/kg/injection, schedule: Q01DX Z (ip), vehicle: saline 109 % of control | dose: 60.0 mg/kg/injection, schedule: Q01DX Z (ip), vehicle: saline 107 % of control | dose: 120.0 mg/kg/injection, schedule: Q01DX Z (ip), vehicle: saline 107 % of control

CCOC(=O)c1[nH]cnc1/N=N/N(C)C1CCCCC1
inactive: dose: 85.0 mg/kg/injection, schedule: Q01DX015 (ip), vehicle: carboxymethylcellulose (CMC) 103 % of control | dose: 100.0 mg/kg/injection, schedule: Q01DX001 (ip), vehicle: carboxymethylcellulose (CMC) 98 % of control | dose: 114.0 mg/kg/injection, schedule: Q01DX015 (ip), vehicle: carboxymethylcellulose (CMC) 107 % of control | dose: 200.0 mg/kg/injection, schedule: Q01DX001 (ip), vehicle: carboxymethylcellulose (CMC) 109 % of control | dose: 400.0 mg/kg/injection, schedule: Q01DX001 (ip), vehicle: carboxymethylcellulose (CMC) 102 % of control

CC(=O)c1cccc(NC(=O)c2cccc(F)c2)c1
inactive: [1] 95 % of control | [2] 97 % of control | dose: 400.0 mg/kg/injection, schedule: Q01DX009 (ip), vehicle: Klucel (hydroxypropylcellulose) (HPC) 95 % of control

CC(C)(C)C1CCS(=O)(=O)CC1.[Cl][Hg][Cl]
inactive: dose: 0.25 mg/kg/injection, schedule: Q01DX009 (ip), vehicle: saline 97 % of control | dose: 0.5 mg/kg/injection, schedule: Q01DX009 (ip), vehicle: saline 98 % of control | dose: 1.0 mg/kg/injection, schedule: Q01DX009 (ip), vehicle: saline 94 % of control

CCCc1cc(=O)[nH]c(=S)[nH]1
inactive: [3] 93 % of control | [4] 96 % of control | [5] 101 % of control

Nc1cc(S(=O)(=O)O)cc2cc(S(=O)(=O)O)cc(S(=O)(=O)O)c12
inactive: dose: 100.0 mg/kg/injection, schedule: Q01DX009 (ip), vehicle: saline 107 % of control | dose: 200.0 mg/kg/injection, schedule: Q01DX009 (ip), vehicle: saline 104 % of control | dose: 400.0 mg/kg/injection, schedule: Q01DX009 (ip), vehicle: saline 100 % of control

CC(C)=NOC(=O)NCCCl
inactive: [3] 103 % of control | [4] 101 % of control | [5] 97 % of control

— PubChem BioAssay AID248 (DTP/NCI, 2004)
